From patent publication US4723008A, “Isoprenylamine derivatives” (priority 1981, dated 1988)

Assays:
tumor cells KN7 -8 = assay: Anti-tumor activity (survivors on the 30th day); format: in vivo, Balb/c male mice; conditions: 30 mg/kg intraperitoneally 3 times (24 hours before, second and fifth day after inoculation of 5×10^5 cells); survivors/group
Description: Groups, each consisting of Balb/c male mice weighing about 20 g, were intraperitoneally administered 5×10^5 of tumor cells KN7 -8.

vaccinia virus = format: in vivo, vaccinia virus; ICR female mice; conditions: 50 mg/kg intraperitoneally 24 hours before inoculation; lesions counted on 8th day
[1] = Toxicity, 50% lethal dose, intravenous; conditions: mouse, in vivo, ddY male mice, read-out: LD50 (Intravenous administration mg/kg)
Description: Using ddY male mice weighing 20-25 g, 50% lethal dose of each test compound intravenously administered was obtained, the results of which are shown in Table 6.

[2] = tested on: Human interferon (normal diploid cells (fibroblast) originated from human being); assay: Human interferon inducing activity (in vitro), 3H-uridine-uptake inhibition; format: cell-based; conditions: 25 n molar suspension
Method: (5) Human interferon inducing activity (in vitro)
Interferon was induced according to the method of Edward A. Havell et al. by treating normal diploid cells (fibroblast) originated from human being with each test compound in the form of ethanol solution diluted with PBS (--), (25 n molar suspension). Using the radioisotope microassay method or H. Ishitsuka et al., interferon was measured in terms of 3H-uridine-uptakeinhibition rate.

[3] = tested on: vaccinia virus (vero cells); format: cell-based; conditions: 50 n molar concentration

Row | Compound | Prevention from vaccinia infection (Pock inhibition rate %) (vaccinia virus) | Human interferon 3H-uridine-uptake inhibition rate (%) [2] | also measured
1 | CC(C)=CCCC(C)=CCCC(C)=CCCC(C)=CCCC(C)=CCCC(C)=CCCC(C)=CCCC(C)=CCCC(C)=CCCC(C)=CCN(Cc1ccccc1)CC(O)CN(CCO)CCO (stereo not shown) [drawing 57] | – | – | Anti-tumor activity (Survivor on the 30th day) (tumor cells KN7 -8): 1/6
2 | CC(C)=CCCC(C)=CCCC(C)=CCCC(C)=CCCC(C)=CCCC(C)=CCCC(C)=CCCC(C)=CCCC(C)=CCN(CCc1ccccc1)CC(O)CNC(C)(C)C (stereo not shown) [drawing 41] | 82.9% | – | –
3 | CC(C)=CCCC(C)=CCCC(C)=CCCC(C)=CCCC(C)=CCCC(C)=CCCC(C)=CCCC(C)=CCCC(C)=CCN(CCc1ccccc1)CC(O)CNC(C)(C)C (stereo not shown) [drawing 64] | – | – | LD50 [1]: 28 mg/kg
4 | CC(C)=CCCC(C)=CCCC(C)=CCCC(C)=CCCC(C)=CCCC(C)=CCCC(C)=CCCC(C)=CCCC(C)=CCN(CCc1ccccc1)CC(O)CN1CCN(CCO)CC1 (stereo not shown) [drawing 65] | – | – | LD50 [1]: 338 mg/kg
5 | CC(C)=CCCC(C)=CCCC(C)=CCCC(C)=CCCC(C)=CCCC(C)=CCCC(C)=CCCC(C)=CCCC(C)=CCCC(C)=CCN1CCOCCOCCNCCOCCOCC1 [drawing 56] | – | – | Anti-tumor activity (Survivor on the 30th day) (tumor cells KN7 -8): 3/6
6 | CC(C)=CCCC(C)=CCCC(C)=CCCC(C)=CCCC(C)=CCCC(C)=CCCC(C)=CCCC(C)=CCCC(C)=CCCC(C)=CCN(CCO)CC(O)c1ccccc1 (stereo not shown) [drawing 38] | 60.1% | – | –
7 | CC(C)=CCCC(C)=CCCC(C)=CCCC(C)=CCCC(C)=CCCC(C)=CCCC(C)=CCCC(C)=CCCC(C)=CCN(CC=C(C)CCC=C(C)CCC=C(C)CCC=C(C)CCC=C(C)CCC=C(C)CCC=C(C)CCC=C(C)CCC=C(C)C)CCCCc1ccccc1 | 34.1% | – | –
8 | CC(C)=CCCC(C)=CCCC(C)=CCCC(C)=CCCC(C)=CCCC(C)=CCCC(C)=CCCC(C)=CCCC(C)=CCN(CCO)Cc1ccccc1 [drawing 74] | – | 5.1% | –
9 | CC(C)=CCCC(C)=CCCC(C)=CCCC(C)=CCCC(C)=CCCC(C)=CCCC(C)=CCCC(C)=CCCC(C)=CCN(CCO)Cc1ccccc1 [drawing 66] | – | – | LD50 [1]: 791 mg/kg
10 | CC(C)=CCCC(C)=CCCC(C)=CCCC(C)=CCCC(C)=CCCC(C)=CCCC(C)=CCCC(C)=CCCC(C)=CCCC(C)=CCN(Cc1ccccc1)CC(O)CN(CCO)CCO (stereo not shown) [drawing 83] | – | – | Anti-vaccinia virus activity (Plaque inhibition rate %) [3]: 10.6%
11 | CC(C)=CCCC(C)=CCCC(C)=CCCC(C)=CCCC(C)=CCCC(C)=CCCC(C)=CCCC(C)=CCCC(C)=CCCC(C)=CCN1CCOCCOCCNCCOCCOCC1 [drawing 67] | – | 28.3% | –
12 | COc1ccc(CN(CC=C(C)CCC=C(C)CCC=C(C)CCC=C(C)CCC=C(C)CCC=C(C)CCC=C(C)CCC=C(C)CCC=C(C)CCC=C(C)C)CC=C(C)CCC=C(C)CCC=C(C)CCC=C(C)CCC=C(C)CCC=C(C)CCC=C(C)CCC=C(C)CCC=C(C)CCC=C(C)C)cc1 | 38.8% | – | –
13 | CC(C)=CCCC(C)=CCCC(C)=CCCC(C)=CCCC(C)=CCCC(C)=CCCC(C)=CCCC(C)=CCCC(C)=CCCC(C)=CCN(CCO)CC(O)c1ccccc1 (stereo not shown) [drawing 68] | – | 4.3% | –
14 | CC(C)=CCCC(C)=CCCC(C)=CCCC(C)=CCCC(C)=CCCC(C)=CCCC(C)=CCCC(C)=CCCC(C)=CCN(CCCN)CCCN | – | – | Anti-tumor activity (Survivor on the 30th day) (tumor cells KN7 -8): 4/6
15 | CC(C)=CCCC(C)=CCCC(C)=CCCC(C)=CCCC(C)=CCCC(C)=CCCC(C)=CCCC(C)=CCCC(C)=CCCC(C)=CCN(Cc1ccccc1)CC(O)CNC(C)(C)C (stereo not shown) [drawing 70] | – | 59.8% | –
16 | CC(C)=CCCC(C)=CCCC(C)=CCCC(C)=CCCC(C)=CCCC(C)=CCCC(C)=CCCC(C)=CCCC(C)=CCCC(C)=CCN(CCO)Cc1ccccc1 [drawing 49] | 38.4% | – | –
17 | CC(C)=CCCC(C)=CCCC(C)=CCCC(C)=CCCC(C)=CCCC(C)=CCCC(C)=CCCC(C)=CCCC(C)=CCCC(C)=CCN(CCO)CC(O)c1ccccc1 (stereo not shown) [drawing 62] | – | – | LD50 [1]: 258 mg/kg

Row | Compound | Prevention from vaccinia infection (Pock inhibition rate %) (vaccinia virus) | Human interferon 3H-uridine-uptake inhibition rate (%) [2] | also measured
18 | CC(C)=CCCC(C)=CCCC(C)=CCCC(C)=CCCC(C)=CCCC(C)=CCCC(C)=CCCC(C)=CCCC(C)=CCN(CCc1ccccc1)CC(O)CN1CCN(CCO)CC1 (stereo not shown) [drawing 42] | 85.6% | – | –
19 | COc1ccc(CN(CC=C(C)CCC=C(C)CCC=C(C)CCC=C(C)CCC=C(C)CCC=C(C)CCC=C(C)CCC=C(C)CCC=C(C)C)CC=C(C)CCC=C(C)CCC=C(C)CCC=C(C)CCC=C(C)CCC=C(C)CCC=C(C)CCC=C(C)CCC=C(C)C)cc1OC | 32.4% | – | –
20 | CC(C)=CCCC(C)=CCCC(C)=CCCC(C)=CCCC(C)=CCCC(C)=CCCC(C)=CCCC(C)=CCCC(C)=CCN(CCc1ccccc1)CC(O)CNC(C)(C)C (stereo not shown) [drawing 71] | – | 32.6% | –
21 | CC(C)=CCCC(C)=CCCC(C)=CCCC(C)=CCCC(C)=CCCC(C)=CCCC(C)=CCCC(C)=CCCC(C)=CCCC(C)=CCN1CCOCCOCCNCCOCCOCC1 [drawing 37] | 57.1% | – | –
22 | CC(C)=CCCC(C)=CCCC(C)=CCCC(C)=CCCC(C)=CCCC(C)=CCCC(C)=CCCC(C)=CCCC(C)=CCCC(C)=CCN1CCN(Cc2ccccc2)CC1 [drawing 78] | – | 3.6% | –
23 | CC(C)=CCCC(C)=CCCC(C)=CCCC(C)=CCCC(C)=CCCC(C)=CCCC(C)=CCCC(C)=CCCC(C)=CCCC(C)=CCN1CCN(Cc2ccccc2)CC1 [drawing 48] | 64.0% | – | –
24 | CC(C)=CCCC(C)=CCCC(C)=CCCC(C)=CCCC(C)=CCCC(C)=CCCC(C)=CCCC(C)=CCCC(C)=CCN(Cc1ccccc1)Cc1ccccc1 [drawing 73] | – | 4.4% | –
25 | COc1ccc(CN(CC=C(C)CCC=C(C)C)CC=C(C)CCC=C(C)C)cc1OC | – | 68.4% | –
26 | CC(C)=CCCC(C)=CCCC(C)=CCCC(C)=CCCC(C)=CCCC(C)=CCCC(C)=CCCC(C)=CCCC(C)=CCN(CCc1ccccc1)CC(O)CN1CCN(CCO)CC1 (stereo not shown) [drawing 59] | – | – | Anti-tumor activity (Survivor on the 30th day) (tumor cells KN7 -8): 4/6
27 | CC(C)=CCCC(C)=CCCC(C)=CCCC(C)=CCCC(C)=CCCC(C)=CCCC(C)=CCCC(C)=CCCC(C)=CCCC(C)=CCN(Cc1ccccc1)CC(O)CN(CCO)CCO (stereo not shown) [drawing 69] | – | 61.3% | –
28 | CC(C)=CCCC(C)=CCCC(C)=CCCC(C)=CCCC(C)=CCCC(C)=CCCC(C)=CCCC(C)=CCCC(C)=CCN(Cc1ccccc1)Cc1ccccc1 [drawing 43] | 50.3% | – | –
29 | CC(C)=CCCC(C)=CCCC(C)=CCCC(C)=CCCC(C)=CCCC(C)=CCCC(C)=CCCC(C)=CCCC(C)=CCCC(C)=CCN(Cc1ccccc1)CC(O)CNC(C)(C)C (stereo not shown) [drawing 58] | – | – | Anti-tumor activity (Survivor on the 30th day) (tumor cells KN7 -8): 2/6
30 | CC(C)=CCCC(C)=CCCC(C)=CCCC(C)=CCCC(C)=CCCC(C)=CCCC(C)=CCCC(C)=CCCC(C)=CCCC(C)=CCN(Cc1ccccc1)CC(O)CN(CCO)CCO (stereo not shown) [drawing 63] | – | – | LD50 [1]: 162 mg/kg
31 | CC(C)=CCCC(C)=CCCC(C)=CCCC(C)=CCCC(C)=CCCC(C)=CCCC(C)=CCCC(C)=CCCC(C)=CCCC(C)=CCN(CCO)Cc1ccccc1 [drawing 79] | – | 25.4% | –
32 | CC(C)=CCCC(C)=CCCC(C)=CCCC(C)=CCCC(C)=CCCC(C)=CCCC(C)=CCCC(C)=CCCC(C)=CCN(CCc1ccccc1)CC(O)CN1CCN(CCO)CC1 (stereo not shown) [drawing 72] | – | 17.4% | –
33 | CC(C)=CCCC(C)=CCCC(C)=CCCC(C)=CCCC(C)=CCCC(C)=CCCC(C)=CCCC(C)=CCCC(C)=CCCC(C)=CCN(CCO)Cc1ccccc1 [drawing 84] | – | – | Anti-vaccinia virus activity (Plaque inhibition rate %) [3]: 14.1%
34 | CC(C)=CCCC(C)=CCCC(C)=CCCC(C)=CCCC(C)=CCCC(C)=CCCC(C)=CCCC(C)=CCCC(C)=CCN(CCO)Cc1ccccc1 [drawing 44] | 53.4% | – | –
